Data published in ChEMBL document CHEMBL3865816, “Design, synthesis and biological evaluation of novel azaspiro analogs of linezolid as antibacterial and antitubercular agents” (Eur J Med Chem, 2016).
Converted amounts (≈) assume the structure as drawn.

Legend:
Type in all cases: functional
Pseudomonas aeruginosa [1] = assay: Antibacterial activity against Pseudomonas aeruginosa NCIM 2036 measured after 8 hrs by spectrophotometric method; conditions: NCIM 2036, 8 h
Staphylococcus aureus [2] = assay: Antibacterial activity against Staphylococcus aureus NCIM 2079 measured after 12 hrs by spectrophotometric method; conditions: NCIM 2079, 12 h
Escherichia coli [3] = assay: Antibacterial activity against Escherichia coli NCIM 2688 measured after 8 hrs by spectrophotometric method; conditions: NCIM 2688, 8 h
Bacillus subtilis [4] = assay: Antibacterial activity against Bacillus subtilis NCIM 2010 measured after 12 hrs by spectrophotometric method; conditions: NCIM 2010, 12 h
[5] = system: Mycobacterium tuberculosis; assay: Antitubercular activity against dormant stage Mycobacterium tuberculosis H37Ra measured after 12 days by XTT assay; conditions: 288 h
Escherichia coli [6] = assay: Antibacterial activity against Escherichia coli NCIM 2688 at 30 ug/ml measured after 8 hrs by spectrophotometric method; conditions: NCIM 2688, 8 h
Escherichia coli [7] = assay: Antibacterial activity against Escherichia coli NCIM 2688 at 10 ug/ml measured after 8 hrs by spectrophotometric method; conditions: NCIM 2688, 8 h
Escherichia coli [8] = assay: Antibacterial activity against Escherichia coli NCIM 2688 at 3 ug/ml measured after 8 hrs by spectrophotometric method; conditions: NCIM 2688, 8 h
Pseudomonas aeruginosa [9] = assay: Antibacterial activity against Pseudomonas aeruginosa NCIM 2036 at 30 ug/ml measured after 8 hrs by spectrophotometric method; conditions: NCIM 2036, 8 h
Pseudomonas aeruginosa [10] = assay: Antibacterial activity against Pseudomonas aeruginosa NCIM 2036 at 10 ug/ml measured after 8 hrs by spectrophotometric method; conditions: NCIM 2036, 8 h
Pseudomonas aeruginosa [11] = assay: Antibacterial activity against Pseudomonas aeruginosa NCIM 2036 at 3 ug/ml measured after 8 hrs by spectrophotometric method; conditions: NCIM 2036, 8 h
Staphylococcus aureus [12] = assay: Antibacterial activity against Staphylococcus aureus NCIM 2079 at 30 ug/ml measured after 12 hrs by spectrophotometric method; conditions: NCIM 2079, 12 h
Staphylococcus aureus [13] = assay: Antibacterial activity against Staphylococcus aureus NCIM 2079 at 10 ug/ml measured after 12 hrs by spectrophotometric method; conditions: NCIM 2079, 12 h
Staphylococcus aureus [14] = assay: Antibacterial activity against Staphylococcus aureus NCIM 2079 at 3 ug/ml measured after 12 hrs by spectrophotometric method; conditions: NCIM 2079, 12 h
Bacillus subtilis [15] = assay: Antibacterial activity against Bacillus subtilis NCIM 2010 at 30 ug/ml measured after 12 hrs by spectrophotometric method; conditions: NCIM 2010, 12 h
Bacillus subtilis [16] = assay: Antibacterial activity against Bacillus subtilis NCIM 2010 at 10 ug/ml measured after 12 hrs by spectrophotometric method; conditions: NCIM 2010, 12 h
Bacillus subtilis [17] = assay: Antibacterial activity against Bacillus subtilis NCIM 2010 at 3 ug/ml measured after 12 hrs by spectrophotometric method; conditions: NCIM 2010, 12 h
[18] = system: Mycobacterium tuberculosis; assay: Antitubercular activity against dormant stage Mycobacterium tuberculosis H37Ra at 30 ug/ml measured after 12 days by XTT assay; conditions: 288 h
[19] = system: Mycobacterium tuberculosis; assay: Antitubercular activity against dormant stage Mycobacterium tuberculosis H37Ra at 10 ug/ml measured after 12 days by XTT assay; conditions: 288 h
[20] = system: Mycobacterium tuberculosis; assay: Antitubercular activity against dormant stage Mycobacterium tuberculosis H37Ra at 3 ug/ml measured after 12 days by XTT assay; conditions: 288 h

In the case of `O=C1O[C@@H](CNS(=O)(=O)c2cccc(C(F)(F)F)c2)CN1c1ccc(N2CC3(COC3)C2)c(F)c1`, the IC50 (Pseudomonas aeruginosa [1]) is reported as > 100 µg/mL, the MIC (Pseudomonas aeruginosa [1]) is reported as > 100 µg/mL and the IC50 (Staphylococcus aureus [2]) is reported as > 100 µg/mL. For the same molecule, the MIC (Staphylococcus aureus [2]) was > 100 µg/mL, the IC50 (Escherichia coli [3]) was 0.57 µg/mL (≈ 1.11 µM) and the MIC (Escherichia coli [3]) was 3.03 µg/mL (≈ 5.88 µM). The IC50 (Bacillus subtilis [4]) was > 100 µg/mL, the MIC (Bacillus subtilis [4]) was > 100 µg/mL and the IC50 [5] was > 100 µg/mL. For the same molecule, the MIC [5] was > 100 µg/mL, the inhibition at 30 µg/mL (Escherichia coli [6]) was 99.5% and the inhibition at 10 µg/mL (Escherichia coli [7]) was 97.5%. For the same molecule, the inhibition at 3 µg/mL (Escherichia coli [8]) was 90.5%, the inhibition at 30 µg/mL (Pseudomonas aeruginosa [9]) was 70.8% and the inhibition at 10 µg/mL (Pseudomonas aeruginosa [10]) was 43%. The inhibition at 3 µg/mL (Pseudomonas aeruginosa [11]) was 0.66%, the inhibition at 30 µg/mL (Staphylococcus aureus [12]) was 19.5% and the inhibition at 10 µg/mL (Staphylococcus aureus [13]) was 17.3%. For the same molecule, the inhibition at 3 µg/mL (Staphylococcus aureus [14]) was -2.71%, the inhibition at 30 µg/mL (Bacillus subtilis [15]) was 25% and the inhibition at 10 µg/mL (Bacillus subtilis [16]) was 17.5%. It also gave an inhibition at 3 µg/mL (Bacillus subtilis [17]) of 11.2%, an inhibition at 30 µg/mL [18] of 25.1% and an inhibition at 10 µg/mL [19] of -59%. It also gave an inhibition at 3 µg/mL [20] of 5.38%.

For `COc1ccc(NC(=S)NC[C@H]2CN(c3ccc(N4CC5(COC5)C4)c(F)c3)C(=O)O2)cc1`, the IC50 (Pseudomonas aeruginosa [1]) was > 100 µg/mL, the MIC (Pseudomonas aeruginosa [1]) was > 100 µg/mL and the IC50 (Staphylococcus aureus [2]) was 0.74 to 100 µg/mL (≈ 1.57 to 212 µM). It also gave an MIC (Staphylococcus aureus [2]) of 16.1 to 100 µg/mL (≈ 34.1 to 212 µM), an IC50 (Escherichia coli [3]) of 1.1 µg/mL (≈ 2.33 µM) and an MIC (Escherichia coli [3]) of 10.7 µg/mL (≈ 22.6 µM). For the same molecule, the IC50 (Bacillus subtilis [4]) was 1.1 µg/mL (≈ 2.33 µM), the MIC (Bacillus subtilis [4]) was 8.78 µg/mL (≈ 18.6 µM) and the IC50 [5] was > 100 µg/mL. For the same molecule, the MIC [5] was > 100 µg/mL, the inhibition at 30 µg/mL (Escherichia coli [6]) was 98% and the inhibition at 10 µg/mL (Escherichia coli [7]) was 89.4%. It also gave an inhibition at 3 µg/mL (Escherichia coli [8]) of 82.2%, an inhibition at 30 µg/mL (Pseudomonas aeruginosa [9]) of 58.5% and an inhibition at 10 µg/mL (Pseudomonas aeruginosa [10]) of 30.1%. It also gave an inhibition at 3 µg/mL (Pseudomonas aeruginosa [11]) of 17.7%, an inhibition at 30 µg/mL (Staphylococcus aureus [12]) of 98.3% and an inhibition at 10 µg/mL (Staphylococcus aureus [13]) of 88.7%. It also gave an inhibition at 3 µg/mL (Staphylococcus aureus [14]) of 81.4%, an inhibition at 30 µg/mL (Bacillus subtilis [15]) of 100% and an inhibition at 10 µg/mL (Bacillus subtilis [16]) of 95.3%. It also gave an inhibition at 3 µg/mL (Bacillus subtilis [17]) of 77.9%, an inhibition at 30 µg/mL [18] of 23.3% and an inhibition at 10 µg/mL [19] of -3.34%. For the same molecule, the inhibition at 3 µg/mL [20] was 14.3%.

In the case of `O=C1O[C@@H](CNC(=S)Nc2ccc(Cl)cc2)CN1c1ccc(N2CC3(COC3)C2)c(F)c1`, the IC50 (Pseudomonas aeruginosa [1]) is reported as > 100 µg/mL, the MIC (Pseudomonas aeruginosa [1]) is reported as > 100 µg/mL and the IC50 (Staphylococcus aureus [2]) is reported as > 100 µg/mL. For the same molecule, the MIC (Staphylococcus aureus [2]) was > 100 µg/mL, the IC50 (Escherichia coli [3]) was > 100 µg/mL and the MIC (Escherichia coli [3]) was > 100 µg/mL. The IC50 (Bacillus subtilis [4]) was > 100 µg/mL, the MIC (Bacillus subtilis [4]) was > 100 µg/mL and the IC50 [5] was > 100 µg/mL. For the same molecule, the MIC [5] was > 100 µg/mL, the inhibition at 30 µg/mL (Escherichia coli [6]) was 69.9% and the inhibition at 10 µg/mL (Escherichia coli [7]) was 42.5%. The inhibition at 3 µg/mL (Escherichia coli [8]) was 47.7%, the inhibition at 30 µg/mL (Pseudomonas aeruginosa [9]) was 71.2% and the inhibition at 10 µg/mL (Pseudomonas aeruginosa [10]) was 49.4%. It also gave an inhibition at 3 µg/mL (Pseudomonas aeruginosa [11]) of 34%, an inhibition at 30 µg/mL (Staphylococcus aureus [12]) of 47.5% and an inhibition at 10 µg/mL (Staphylococcus aureus [13]) of 37.9%. The inhibition at 3 µg/mL (Staphylococcus aureus [14]) was 18.8%, the inhibition at 30 µg/mL (Bacillus subtilis [15]) was 62.6% and the inhibition at 10 µg/mL (Bacillus subtilis [16]) was 45.6%. The inhibition at 3 µg/mL (Bacillus subtilis [17]) was 24.1%, the inhibition at 30 µg/mL [18] was -0.48% and the inhibition at 10 µg/mL [19] was 15.7%. The inhibition at 3 µg/mL [20] was 14.8%.

In the case of `O=C1O[C@@H](CNC(=S)Nc2cccc(C(F)(F)F)c2)CN1c1ccc(N2CC3(COC3)C2)c(F)c1`, the IC50 (Pseudomonas aeruginosa [1]) is reported as > 100 µg/mL, the MIC (Pseudomonas aeruginosa [1]) is reported as > 100 µg/mL and the IC50 (Staphylococcus aureus [2]) is reported as > 100 µg/mL. The MIC (Staphylococcus aureus [2]) was > 100 µg/mL, the IC50 (Escherichia coli [3]) was 0.49 µg/mL (≈ 0.96 µM) and the MIC (Escherichia coli [3]) was 2.41 µg/mL (≈ 4.72 µM). The IC50 (Bacillus subtilis [4]) was > 100 µg/mL, the MIC (Bacillus subtilis [4]) was > 100 µg/mL and the IC50 [5] was > 100 µg/mL. For the same molecule, the MIC [5] was > 100 µg/mL, the inhibition at 30 µg/mL (Escherichia coli [6]) was 96.3% and the inhibition at 10 µg/mL (Escherichia coli [7]) was 95.8%. For the same molecule, the inhibition at 3 µg/mL (Escherichia coli [8]) was 93.3%, the inhibition at 30 µg/mL (Pseudomonas aeruginosa [9]) was 79.6% and the inhibition at 10 µg/mL (Pseudomonas aeruginosa [10]) was 67%. The inhibition at 3 µg/mL (Pseudomonas aeruginosa [11]) was 45.2%, the inhibition at 30 µg/mL (Staphylococcus aureus [12]) was 94.5% and the inhibition at 10 µg/mL (Staphylococcus aureus [13]) was 79.2%. The inhibition at 3 µg/mL (Staphylococcus aureus [14]) was 64.1%, the inhibition at 30 µg/mL (Bacillus subtilis [15]) was 97.2% and the inhibition at 10 µg/mL (Bacillus subtilis [16]) was 80.2%. The inhibition at 3 µg/mL (Bacillus subtilis [17]) was 65.9%, the inhibition at 30 µg/mL [18] was 78% and the inhibition at 10 µg/mL [19] was 44.5%. The inhibition at 3 µg/mL [20] was 10.7%.

In the case of `O=C1OC2(CCNC2)CN1c1ccc(N2CCOCC2)c(F)c1` (stereo not given), the IC50 (Pseudomonas aeruginosa [1]) is reported as > 100 µg/mL, the MIC (Pseudomonas aeruginosa [1]) is reported as > 100 µg/mL and the IC50 (Staphylococcus aureus [2]) is reported as > 100 µg/mL. For the same molecule, the MIC (Staphylococcus aureus [2]) was > 100 µg/mL, the IC50 (Escherichia coli [3]) was 4.44 µg/mL (≈ 13.8 µM) and the MIC (Escherichia coli [3]) was 0.554 µg/mL (≈ 1.72 µM). For the same molecule, the IC50 (Bacillus subtilis [4]) was > 100 µg/mL, the MIC (Bacillus subtilis [4]) was > 100 µg/mL and the IC50 [5] was > 100 µg/mL. The MIC [5] was > 100 µg/mL, the inhibition at 30 µg/mL (Escherichia coli [6]) was 99.8% and the inhibition at 10 µg/mL (Escherichia coli [7]) was 96.2%. The inhibition at 3 µg/mL (Escherichia coli [8]) was 86.4%, the inhibition at 30 µg/mL (Pseudomonas aeruginosa [9]) was 36.2% and the inhibition at 10 µg/mL (Pseudomonas aeruginosa [10]) was 32.2%. The inhibition at 3 µg/mL (Pseudomonas aeruginosa [11]) was 22.6%, the inhibition at 30 µg/mL (Staphylococcus aureus [12]) was 50.2% and the inhibition at 10 µg/mL (Staphylococcus aureus [13]) was 46.8%. The inhibition at 3 µg/mL (Staphylococcus aureus [14]) was 36.2%, the inhibition at 30 µg/mL (Bacillus subtilis [15]) was 32.2% and the inhibition at 10 µg/mL (Bacillus subtilis [16]) was 21.5%. The inhibition at 3 µg/mL (Bacillus subtilis [17]) was 8.05%, the inhibition at 30 µg/mL [18] was 49.3% and the inhibition at 10 µg/mL [19] was 17%. For the same molecule, the inhibition at 3 µg/mL [20] was 13.6%.
